Experimental data reported in US20090143279A1 (priority 2007, published 2009).
Read-outs that look alike come from different tables or passages of the source.

What was measured:
[1] = tested on: mitochondrial membrane potential; format: cell-based, mouse; details: for ΔΨm (composite Z-score): normalized score vs mock-treated (DMSO) wells
[2] = tested on: reactive oxygen species; format: cell-based, mouse; details: for ROS (composite Z-score): normalized score vs mock-treated (DMSO) wells
[3] = tested on: OXPHOS gene expression; format: cell-based, mouse; details: for GE-HTS (composite Z-score): normalized score vs mock-treated (DMSO) wells
[4] = tested on: nuOXPHOS transcripts; format: cell-based, mouse; details: for nucOX (composite Z-score): normalized score vs mock-treated (DMSO) wells
[5] = tested on: mtOXPHOS transcripts; format: cell-based, mouse; details: for mitoOX (composite Z-score): normalized score vs mock-treated (DMSO) wells
[6] = tested on: cytochrome c; format: cell-based, mouse; details: for cyt c (composite Z-score): normalized score vs mock-treated (DMSO) wells
[7] = tested on: C2C12 myotubes; details: for Viability (composite Z-score): normalized score vs mock-treated (DMSO) wells
[8] = tested on: cellular dehydrogenase activity; details: for MTT (composite Z-score): normalized score vs mock-treated (DMSO) wells
[9] = 20 μM, composite Z-score vs DMSO
[10] = composite Z-score vs DMSO, Conc 20 μM
[11] = composite Z-score vs mock-treated (DMSO) wells, Conc 20 μM
[12] = normalized composite Z-score vs mock-treated (DMSO) wells, Conc 20 μM

Compound: CCCC(C(=O)OCCN(CC)CC)(c1ccccc1)c1ccccc1 [proadifen]
- ΔΨm [1]: −0.557
- ΔΨm [1, 9]: −0.654
- ROS [2]: 0.616
- ROS [2, 9]: 0.678
- GE-HTS [3]: −0.364
- GE-HTS [3, 9]: −0.377
- nucOX [4]: −0.414
- nucOX [4, 9]: −0.243
- mitoOX [5]: −0.201
- mitoOX [5, 9]: −0.595
- cyt c [6]: 0.223
- cyt c [6, 9]: −0.077
- Viability [7]: −0.388
- Viability [7, 9]: −1.715
- MTT [8]: −1.220
- MTT [8, 9]: −1.808

Compound: COc1ccc2c(c1)OC/C(=C/c1ccc(OC)c(OC)c1)C2=O [sappanone A trimethyl ether]
- ΔΨm (composite Z-score) ([1]; Conc 20 μM): −0.290
- ROS (composite Z-score) ([2]; Conc 20 μM): 0.120
- GE-HTS (composite Z-score) ([3]; Conc 20 μM): 1.090
- nucOX (composite Z-score) ([4]; Conc 20 μM): 1.458
- mitoOX (composite Z-score) ([5]; Conc 20 μM): 0.094
- cyt c (composite Z-score) ([6]; Conc 20 μM): −0.471
- Viability (composite Z-score) ([7]; Conc 20 μM): −0.259
- MTT (composite Z-score) ([8]; Conc 20 μM): −0.980

Compound: OC[C@@H](O)[C@@H](OC1O[C@H](CO)[C@@H](O)[C@H](O)[C@H]1O)[C@H](O)[C@@H](O)CO (some centres unmarked) [glucitol-4-gucopyanoside]
- ΔΨm (composite Z-score) ([1]; Conc 20 μM): −0.454
- ROS (composite Z-score) ([2]; Conc 20 μM): 0.351
- GE-HTS (composite Z-score) ([3]; Conc 20 μM): −1.143
- nucOX (composite Z-score) ([4]; Conc 20 μM): −1.087
- mitoOX (composite Z-score) ([5]; Conc 20 μM): −1.006
- cyt c (composite Z-score) ([6]; Conc 20 μM): 0.305
- Viability (composite Z-score) ([7]; Conc 20 μM): −0.508
- MTT (composite Z-score) ([8]; Conc 20 μM): −0.795

Compound: CN[C@H]1CC[C@@H](c2ccc(Cl)c(Cl)c2)c2ccccc21 [sertraline]
- ΔΨm [1]: 0.420
- ROS [2]: 0.090
- GE-HTS [3]: −1.068
- nucOX [4]: −1.476
- mitoOX [5]: 0.020
- cyt c [6]: −1.121
- Viability [7]: 0.279
- MTT [8]: −1.905

Compound: CC(C)(OC(=O)c1ccccc1)[C@@H]1Cc2cc3ccc(=O)oc3cc2O1 [felamidin]
- ΔΨm [1, 10]: 0.600
- ROS [2, 10]: 0.710
- GE-HTS [3, 10]: 0.966
- nucOX [4, 10]: 0.835
- mitoOX [5, 10]: 1.050
- cyt c [6, 10]: 0.921
- Viability [7, 10]: 0.224
- MTT [8, 10]: −0.475

Compound: CC(=O)O[C@H]1CC[C@]2(C)[C@H]3CC[C@@]4(C)[C@H](c5ccoc5)OC(=O)[C@H]5O[C@]54[C@]3(C)[C@H](OC(C)=O)C[C@H]2C1(C)C [3beta-acetoxydeoxodihydrogedunin]
- ΔΨm [1, 11]: 0.254
- ROS [2, 11]: 0.055
- GE-HTS [3, 11]: −1.016
- nucOX [4, 11]: −1.055
- mitoOX [5, 11]: −0.694
- cyt c [6, 11]: 0.759
- Viability [7, 11]: 0.311
- MTT [8, 11]: −0.528

Compound: NC(=O)N/N=C/c1ccc([N+](=O)[O-])o1 [nitrofurazone]
- ΔΨm [1, 10]: −0.185
- ROS [2, 10]: 2.173
- GE-HTS [3, 10]: −0.199
- nucOX [4, 10]: 0.038
- mitoOX [5, 10]: −0.643
- cyt c [6, 10]: 0.785
- Viability [7, 10]: 0.544
- MTT [8, 10]: −0.617

Compound: COc1ccc(-c2oc3cc(O[C@@H]4O[C@H](CO)[C@@H](O)[C@H](O)[C@H]4O)c(OC)c(O)c3c(=O)c2OC)cc1O [centaurein]
- ΔΨm (composite Z-score) ([1]; Conc 20 μM): −0.744
- ROS (composite Z-score) ([2]; Conc 20 μM): −0.090
- GE-HTS (composite Z-score) ([3]; Conc 20 μM): 0.497
- nucOX (composite Z-score) ([4]; Conc 20 μM): 0.388
- mitoOX (composite Z-score) ([5]; Conc 20 μM): 0.657
- cyt c (composite Z-score) ([6]; Conc 20 μM): −0.039
- Viability (composite Z-score) ([7]; Conc 20 μM): −0.006
- MTT (composite Z-score) ([8]; Conc 20 μM): −1.640

Compound: NC1(C(=O)O)CCCC1 [cycloleucine]
- ΔΨm [1, 9]: −0.765
- ROS [2, 9]: 0.024
- GE-HTS [3, 9]: −0.839
- nucOX [4, 9]: −0.495
- mitoOX [5, 9]: −1.397
- cyt c [6, 9]: 0.822
- Viability [7, 9]: −1.300
- MTT [8, 9]: −1.310

Compound: C=C[C@@](C)(O)CCC1C(=C)CCC2[C@@](C)(CO)CCC[C@]12C (stereo partly drawn) [epi(13)torulosol]
- ΔΨm [1, 12]: 0.022
- ROS [2, 12]: 1.180
- GE-HTS [3, 12]: 0.491
- nucOX [4, 12]: 0.342
- mitoOX [5, 12]: 0.643
- cyt c [6, 12]: 0.483
- Viability [7, 12]: 0.367
- MTT [8, 12]: 0.603

Compound: CC1(C)C(=O)C=C[C@]2(C)[C@H]3CC[C@@]4(C)[C@H](c5ccoc5)OC(=O)[C@H]5O[C@]54[C@]3(C)[C@H](O)C[C@@H]12 [deacetylgedunin]
- ΔΨm [1, 11]: 0.349
- ROS [2, 11]: −0.966
- GE-HTS [3, 11]: −0.322
- nucOX [4, 11]: −0.244
- mitoOX [5, 11]: −0.484
- cyt c [6, 11]: −0.489
- Viability [7, 11]: −0.032
- MTT [8, 11]: −0.958

Compound: CC1(C)C2CC(=O)[C@]3(C)C(CC[C@@]4(C)[C@H](c5ccoc5)OC(=O)C5OC543)[C@@]2(C)[C@@H](O)C[C@H]1O (some centres unmarked) [1,3-dideacetyl-7-deacetoxy-7-oxokhivorin]
- ΔΨm [1, 12]: 1.329
- ROS [2, 12]: 1.267
- GE-HTS [3, 12]: −0.665
- nucOX [4, 12]: −0.716
- mitoOX [5, 12]: −0.497
- cyt c [6, 12]: 0.226
- Viability [7, 12]: 0.190
- MTT [8, 12]: −1.399
